In patent US6921770B2 (priority 2000, dated 2005):

System: rice blast fungi
Format: in vivo, Pyricularia grisea

Compound | Inhibiting Ratio (%) (at 250 ppm)
COc1ccc(NC(=O)Cc2csc(=Nc3ccc(C#N)cc3)n2C)cc1 [Compound 330, 2-(4-cyanophenylimino)-3-methyl-4-[N-(4-methoxyphenyl)carbamoylmethyl]-1,3-thiazol-4-ine] | 100%
Cl.Cn1c(CC(=O)Nc2ccc(Br)cc2)csc1=Nc1ccccc1F [Compound 148, 2-(2-fluorophenylimino)-3-methyl-4-[N-(4-bromophenyl)carbamoylmethyl]-1,3-thiazol-4-ine hydrochloride] | 95%
Cc1ccc(NC(=O)Cc2csc(=Nc3cc(Cl)cc(Cl)c3)n2C)cc1Cl.Cl [Compound 230, 2-(3,5-dichlorophenylimino)-3-methyl-4-[N-(3-chloro-4-methylphenyl)carbamoylmethyl]-4-thiazoline hydrochloride] | 93%
Cl.Cn1c(CC(=O)Nc2ccccc2F)csc1=Nc1ccc(OC(F)(F)F)cc1 [Compound 79, 2-(4-trifluoromethoxyphenylimino)-3-methyl-4-[N-(2-fluorophenyl)carbamoylmethyl]-1,3-thiazol-4-ine hydrochloride] | 90%
CCCCc1ccc(N=c2scc(CC(=O)Nc3ccc(Cl)cc3)n2C)cc1.Cl [Compound 124, 2-[4-(n-butyl)phenylimino]-3-methyl-4-[N-(4-chlorophenyl)carbamoylmethyl]-1,3-thiazol-4-ine hydrochloride] | 93%
Cl.Cn1c(CC(=O)Nc2ccc(Cl)cc2)csc1=Nc1ccc(Br)cc1 [Compound 130, 2-(4-bromophenylimino)-3-methyl-4-[N-(4-chlorophenyl)carbamoylmethyl]-1,3-thiazol-4-ine hydrochloride] | 98%
Br.Cc1ccc(NC(=O)Cc2csc(=Nc3ccc(C)c(Cl)c3)n2C)cc1 [Compound 35, 2-(3-chloro-4-methylphenylimino)-3-methyl-4[N-(4-methylphenyl)carbamoylmethyl]-1,3-thiazol-4-ine hydrobromide] | 100%
COc1ccc(NC(=O)Cc2csc(=Nc3ccc(OC(F)(F)F)cc3)n2C)cc1.Cl [Compound 209, 2-(4-trifluoromethoxyphenylimino)-3-methyl-4-[N-(4-methoxyphenyl)carbamoylmethyl]-1,3-thiazol-4-ine hydrochloride] | 97%
Br.Cn1c(CC(=O)Nc2cccc(Cl)c2)csc1=Nc1ccc(C#N)cc1 [Compound 57, 2-(4-cyanophenylimino)-3-methyl-4-[N-(3-chlorophenyl)carbamoylmethyl]-1,3-thiazol-4-ine hydrobromide] | 96%
Cc1ccc(NC(=O)Cc2csc(=Nc3ccc(Br)cc3)n2C)cc1Cl.Cl [Compound 229, 2-(4-bromophenylimino)-3-methyl-4-[N-(3-chloro-4-methylphenyl)carbamoylmethyl]-4-thiazoline hydrochloride] | 93%
Cl.Cn1c(CC(=O)Nc2ccccc2F)csc1=Nc1ccc(Cl)cc1F [Compound 150, 2-(4-chloro-2-fluorophenylimino)-3-methyl-4-[N-(2-fluorophenyl)carbamoylmethyl]-1,3-thiazol-4-ine hydrochloride] | 96%
Br.Cc1ccc(NC(=O)Cc2csc(=Nc3ccc(Cl)cc3C)n2C)cc1 [Compound 32, 2-(4-chloro-2-methylphenylimino)-3-methyl-4-[N-(4-methylphenyl)carbamoylmethyl]-1,3-thiazol-4-ine hydrobromide] | 100%
Br.COc1ccc(NC(=O)Cc2csc(=Nc3ccc(OC(C)C)cc3)n2C)cc1 [Compound 313, 2-(4-isopropoxyphenylimino)-3-methyl-4-[N-(4-methoxyphenyl)carbamoylmethyl]-1,3-thiazol-4-ine hydrobromide] | 100%
Br.Cn1c(CC(=O)Nc2ccccc2)csc1=Nc1ccc(F)c(Cl)c1 [Compound 43, 2-(3-chloro-4-fluorophenylimino)-3-methyl-4-(N-phenylcarbamoylmethyl)-1,3-thiazol-4-ine hydrobromide] | 93%
COc1ccc(N=c2scc(CC(=O)Nc3ccccc3F)n2C)cc1.Cl [Compound 78, 2-(4-methoxyphenylimino)-3-methyl-4-[N-(2-fluorophenyl)carbamoylmethyl]-1,3-thiazol-4-ine hydrochloride] | 91%
Cc1ccc(N=c2scc(CC(=O)Nc3ccc(Cl)cc3)n2C)c(C)c1.Cl [Compound 154, 2-(2,4-dimethylphenylimino)-3-methyl-4-(N-(4-chlorophenyl)carbamoylmethyl)-1,3-thiazol-4-ine hydrochloride] | 93%
Br.CCCCc1ccc(N=c2scc(CC(=O)Nc3ccc(C)cc3)n2C)cc1 [Compound 30, 2-[4-(n-butyl)phenylimino]-3-methyl-4-[N-(4-methylphenyl)carbamoylmethyl]-1,3-thiazol-4-ine hydrobromide] | 100%

Compound | Inhibiting Ratio (%) (at 250 ppm)
Br.Cn1c(CC(=O)Nc2ccccc2)csc1=Nc1cccc(C(F)(F)F)c1 [Compound 1, 2-(3-trifluoromethylphenylimino)-3-methyl-4-(N-phenylcarbamoylmethyl)-1,3-thiazol-4-ine hydrobromide] | 75%
Cl.Cn1c(CC(=O)Nc2ccc(Br)cc2)csc1=Nc1cc(Cl)cc(Cl)c1 [Compound 138, 2-(3,5-dichlorophenylimino)-3-methyl-4-[N-(4-bromophenyl)carbamoylmethyl]-1,3-thiazol-4-ine hydrochloride] | 95%
Cl.Cn1c(CC(=O)Nc2ccc(OC(F)(F)F)cc2)csc1=Nc1ccc(OC(F)(F)F)cc1 [Compound 108, 2-(4-trifluoromethoxyphenylimino)-3-methyl-4-[N-(4-trifluoromethoxyphenyl)carbamoylmethyl]-1,3-thiazol-4-ine hydrochloride] | 91%
Cc1cccc(NC(=O)Cc2csc(=Nc3cc(OC(C)C)c(Cl)cc3F)n2C)c1 [Compound 333, 2-(2-fluoro-4-chloro-5-isopropoxyphenylimino)-3-methyl-4-[N-(3-methylphenyl)carbamoylmethyl]-1,3-thiazol-4-ine] | 98%
Cl.Cn1c(CC(=O)Nc2ccc(Br)cc2)csc1=Nc1ccc([N+](=O)[O-])cc1 [Compound 144, 2-(4-nitrophenylimino)-3-methyl-4-[N-(4-bromophenyl)carbamoylmethyl]-1,3-thiazol-4-ine hydrochloride] | 97%
COc1ccc(C)cc1N=c1scc(CC(=O)Nc2ccc(C)c(Cl)c2)n1C.Cl [Compound 239, 2-(2-methoxy-5-methylphenylimino)-3-methyl-4-[N-(3-chloro-4-methylphenyl)carbamoylmethyl]-1,3-thiazol-4-ine hydrochloride] | 92%
Br.COc1ccc(N=c2scc(CC(=O)Nc3cccc(C(F)(F)F)c3)n2C)cc1 [Compound 36, 2-(4-methoxyphenylimino)-3-methyl-4-[N-(3-trifluoromethylphenyl)carbamoylmethyl]-1,3-thiazol-4-ine hydrobromide] | 98%
Br.Cn1c(CC(=O)Nc2ccccc2)csc1=Nc1ccc(Cl)c(C(F)(F)F)c1 [Compound 37, 2-(4-chloro-3-trifluoromethylphenylimino)-3-methyl-4-(N-phenylcarbamoylmethyl)-1,3-thiazol-4-ine hydrobromide] | 100%
Br.CCCCc1ccc(N=c2scc(CC(=O)Nc3cccc(Cl)c3)n2C)cc1 [Compound 56, 2-[4-(n-butyl)phenylimino]-3-methyl-4-[N-(3-chlorophenyl)carbamoylmethyl]-1,3-thiazol-4-ine hydrobromide] | 96%
Br.Cn1c(CC(=O)Nc2cccc(Cl)c2)csc1=Nc1cccc(C(F)(F)F)c1 [Compound 19, 2-(3-trifluoromethylphenylimino)-3-methyl-4-[N-(3-chlorophenyl)carbamoylmethyl]-1,3-thiazol-4-ine hydrobromide] | 91%
Br.Cc1ccccc1NC(=O)Cc1csc(=Nc2ccc(C#N)cc2)n1C [Compound 324, 2-(4-cyanophenylimino)-3-methyl-4-[N-(2-methylphenyl)carbamoylmethyl]1,3-thiazol-4-ine hydrobromide] | 90%
Br.Cn1c(CC(=O)Nc2cccc(Cl)c2)csc1=Nc1ccc(F)cc1F [Compound 68, 2-(2,4-difluorophenylimino)-3-methyl-4-[N-(3-chlorophenyl)carbamoylmethyl]-1,3-thiazol-4-ine hydrobromide] | 95%
Cc1ccc(NC(=O)Cc2csc(=Nc3ccccc3F)n2C)cc1Cl.Cl [Compound 235, 2-(2-fluorophenylimino)-3-methyl-4-[N-(3-chloro-4-methylphenyl)carbamoylmethyl]-4-thiazoline hydrochloride] | 92%
Br.Cn1c(CC(=O)Nc2cccc(Cl)c2)csc1=Nc1cccc([N+](=O)[O-])c1 [Compound 18, 2-(3-nitrophenylimino)-3-methyl-4-[N-(3-chlorophenyl)carbamoylmethyl]-1,3-thiazol-4-ine hydrobromide] | 93%
Cl.Cn1c(CC(=O)Nc2ccc(Cl)cc2)csc1=Nc1ccc(Cl)cc1F [Compound 158, 2-(4-chloro-2-fluorophenylimino)-3-methyl-4-[N-(4-chlorophenyl)carbamoylmethyl]-1,3-thiazol-4-ine hydrochloride] | 90%
Br.CC(C)Oc1cc(N=c2scc(CC(=O)Nc3ccccc3)n2C)c(F)cc1Cl [Compound 69, 2-(4-chloro-2-fluoro-5-isoproxyphenylimino)-3-methyl-4-(N-phenylcarbamoylmethyl)-1,3-thiazol-4-ine hydrobromide] | 96%
